# Data as given in paper PMC548510, “Inhibition of early steps in the lentiviral replication cycle by cathelicidin host defense peptides” (Retrovirology, 2005).
# Like-named read-outs stand apart in the source and are kept apart here.
# Legend:
# S. aureus = format: cell-based, Staphylococcus aureus (ATCC 25923); conditions: radial diffusion, 1% agarose underlay, 10 mM sodium phosphate, 100 mM NaCl, pH 7.4, 3 individual experiments, quadruplicates
# S. epidermidis = assay: radial diffusion assay (growth inhibition); format: cell-based, Staphylococcus epidermidis (ATCC 12228); conditions: 1% agarose underlay, 10 mM sodium phosphate, 100 mM NaCl, pH 7.4, 3 individual experiments, quadruplicates
# E. faecalis = assay: radial diffusion assay (growth inhibition); format: cell-based, Enterococcus faecalis (ATCC 29212); conditions: 1% agarose underlay, 10 mM sodium phosphate, 100 mM NaCl, pH 7.4, 3 individual experiments, quadruplicates
# P. aeruginosa = assay: radial diffusion assay (growth inhibition); format: cell-based, Pseudomonas aeruginosa (ATCC 27853); conditions: 1% agarose underlay, 10 mM sodium phosphate, 100 mM NaCl, pH 7.4, 3 individual experiments, quadruplicates, > 128 = not susceptible
# E. coli = format: cell-based, Escherichia coli (ATCC 25922); conditions: radial diffusion, 1% agarose underlay, 10 mM sodium phosphate, 100 mM NaCl, pH 7.4, 3 individual experiments, quadruplicates
# A. baumanii = assay: radial diffusion assay (growth inhibition); format: cell-based, Acinetobacter baumannii (ATCC 19606); conditions: 1% agarose underlay, 10 mM sodium phosphate, 100 mM NaCl, pH 7.4, 3 individual experiments, quadruplicates, > 128 = not susceptible
# P4CCR5 cells = assay: BrdU incorporation cell proliferation assay; format: cell-based
# Experimental: 293-Luc cells were plated in 96 well plates at a density of 2 × 10^3 cells / well. After 48 hours, 50 μl of MTT-solution (3 mg/ml) was added and incubated at 37° C under 5% CO2 for 1 hour. After this time medium was removed and 100 μl 0.04 N HCL + 10% SDS was used to dissolve the resulting blue formazan crystals in living cells. The optical density was determined at 550 nm. Each single value of the triplicates was expressed as percent of the mean of triplicates of control cultures infected with the same vector in the absence of HDPs and the mean and the standard deviation of the percent values was calculated for each triplicate. In addition the BrdU Cell proliferation ELISA with chemiluminescence detection (Roche Diagnostics GmbH, Mannheim, Germany) was performed. After 293-Luc cells or P4CCR5 cells were plated in 96 well plates at a density of 2 × 10^3 cells/well BrdU (5-bromo-2'-deoxyuridine) was added to the cells with a resulting concentration of 10 μM for the last 22 h of the incubation period. After removing the culture medium, the cells were fixed and DNA was denatured in one step with Fixdenat. Thereafter the cells were incubated with Anti-BrdU-POD for 1 h at room temperature. The chemiluminescence detection was measured after automatic injection of substrate solution with a microplate-luminometer (Orion, Berthold detection systems, Pforzheim, Germany).
# To determine the effect of HDPs on vector infectivity and cell metabolism, 293A target cells were plated in triplicates into 96-well plates at 2 × 10^3 cells / well. […] The affect of HDPs on cell metabolism was determined in parallel by plating 293-Luc cells exactly the same way as 293A cells and the luciferase activity was determined after one (as a control to inhibition of adenoviral vector infectivity) or two (as a control of lentiviral infectivity) days of incubation with HDPs. For GFP-expressing vectors, vector titers were calculated from the number of GFP positive cells per well as previously described and the BrdU incorporation assay was used to monitor cytotoxic effects.
# [1] = system: retroviral vector (pRV-172) containing the amphotropic MLV Env; format: cell-based
# [2] = system: VSV-G pseudotyped lentiviral vector VLΔBH
# [3] = system: HIV vectors containing the HIV-1 envelope; parameters: IC50, HIV-1 Env mediated vector entry, as printed in the picture of Figure 6 A, B: unit not given beside the values
# wild type HIV-1 = system: wild type HIV-1; parameters: IC50, wild type HIV-1 infection, as printed in the picture of Figure 6 C, D: unit not given beside the values; conditions: for IC50, wild type HIV-1 infection, as printed in the picture of Figure 6 C, D: P4CCR5 indicator cells, virus titer
compound,measurement,setting,value
CC(C)C[C@H](NC(=O)[C@H](CCCNC(=N)N)NC(=O)CNC(=O)CNC(=O)[C@@H](N)CCCNC(=N)N)C(=O)N[C@H]1CSSC[C@@H](C(=O)N[C@H](C(=O)NCC(=O)N[C@@H](CCCNC(=N)N)C(N)=O)C(C)C)NC(=O)[C@H](C(C)C)NC(=O)[C@@H]2CSSC[C@H](NC(=O)[C@H](Cc3ccc(O)cc3)NC1=O)C(=O)N[C@@H](CCCNC(=N)N)C(=O)N[C@@H](CCCNC(=N)N)C(=O)N[C@@H](CCCNC(=N)N)C(=O)N[C@@H](Cc1ccccc1)C(=O)N2 [Protegrin-1],M E C (minimal effectory concentration),S. aureus,"0,91 ± 0,04 μg/ ml"
same,M E C (minimal effectory concentration),S. epidermidis,"4,48 ± 0,2 μg/ ml"
same,M E C (minimal effectory concentration),E. faecalis,"4,46 ± 0,3 μg/ ml"
same,M E C (minimal effectory concentration),P. aeruginosa,"3,3 ± 1,1 μg/ ml"
same,M E C (minimal effectory concentration),E. coli,"2 ± 0,1 μg/ ml"
same,M E C (minimal effectory concentration),A. baumanii,"5,01 ± 0,2 μg/ ml"
same,concentration up to which inhibitory effects on cell proliferation were not observed,P4CCR5 cells,> 50 µg/mL
same,"inhibitory effects on cell proliferation at the IC50 concentrations (25 μg/ml LL37, 14 μg/ml PG-1)",P4CCR5 cells,only minimal inhibitory effects
same,"dose dependent reduction in luciferase activity, MLV vector compared with lentiviral vector",[1],very similar
same,50% inhibitory concentration (IC50) for the VLΔBH lentiviral vector,[2],~16.8 µg/mL
same,specific inhibition of early steps of infection (lentiviral vector versus stably transduced target cells),[2],Specific inhibition
same,"IC50, HIV-1 Env mediated vector entry, as printed in the picture of Figure 6 A, B",[3],14.3
same,"IC50, wild type HIV-1 infection, as printed in the picture of Figure 6 C, D",wild type HIV-1,7.2
same,IC50 against wild type HIV-1,wild type HIV-1; wild type,below 10 μg/ml
Plectasin,M E C (minimal effectory concentration),S. aureus,"2,42 ± 0,4 μg/ ml"
same,M E C (minimal effectory concentration),S. epidermidis,"8,20 ± 0,5 μg/ ml"
same,M E C (minimal effectory concentration),E. faecalis,"10,60 ± 0,7 μg/ ml"
same,M E C (minimal effectory concentration),P. aeruginosa,> 128 µg/mL
same,M E C (minimal effectory concentration),E. coli,"79,10 ± 0,3 μg/ ml"
same,M E C (minimal effectory concentration),A. baumanii,> 128 µg/mL
CC[C@H](C)[C@H](NC(=O)[C@H](CCCCN)NC(=O)[C@H](CCC(=O)O)NC(=O)[C@H](CCCCN)NC(=O)[C@H](CO)NC(=O)[C@H](CCCCN)NC(=O)[C@H](CCCNC(=N)N)NC(=O)[C@H](Cc1ccccc1)NC(=O)[C@H](Cc1ccccc1)NC(=O)[C@H](CC(=O)O)NC(=O)CNC(=O)[C@H](CC(C)C)NC(=O)[C@@H](N)CC(C)C)C(=O)NCC(=O)N[C@@H](CCCCN)C(=O)N[C@@H](CCC(=O)O)C(=O)N[C@@H](Cc1ccccc1)C(=O)N[C@@H](CCCCN)C(=O)N[C@@H](CCCNC(=N)N)C(=O)N[C@H](C(=O)N[C@H](C(=O)N[C@@H](CCC(N)=O)C(=O)N[C@@H](CCCNC(=N)N)C(=O)N[C@H](C(=O)N[C@@H](CCCCN)C(=O)N[C@@H](CC(=O)O)C(=O)N[C@@H](Cc1ccccc1)C(=O)N[C@@H](CC(C)C)C(=O)N[C@@H](CCCNC(=N)N)C(=O)N[C@@H](CC(N)=O)C(=O)N[C@@H](CC(C)C)C(=O)N[C@H](C(=O)N1CCC[C@H]1C(=O)N[C@@H](CCCNC(=N)N)C(=O)N[C@H](C(=O)N[C@@H](CCC(=O)O)C(=O)N[C@@H](CO)C(=O)O)[C@@H](C)O)C(C)C)[C@@H](C)CC)C(C)C)[C@@H](C)CC [LL37],M E C (minimal effectory concentration),S. aureus,"4,74 ± 0,1 μg/ ml"
same,M E C (minimal effectory concentration),S. epidermidis,"13,09 ± 0,6 μg/ ml"
same,M E C (minimal effectory concentration),E. faecalis,"13,61 ± 0,7 μg/ ml"
same,M E C (minimal effectory concentration),E. coli,"11,66 ± 1,5 μg/ ml"
same,M E C (minimal effectory concentration),A. baumanii,"13,13 ± 0,2 μg/ ml"
same,"inhibitory effects on cell proliferation at the IC50 concentrations (25 μg/ml LL37, 14 μg/ml PG-1)",P4CCR5 cells,only minimal inhibitory effects
same,"dose dependent reduction in luciferase activity, MLV vector compared with lentiviral vector","[1]; 293A cells, triplicates of two independent experiments",very similar
same,50% inhibitory concentration (IC50) for the VLΔBH lentiviral vector,[2],approximately 30 μg/ml
same,specific inhibition of early steps of infection (lentiviral vector versus stably transduced target cells),[2],Specific inhibition
same,"IC50, HIV-1 Env mediated vector entry, as printed in the picture of Figure 6 A, B","[3]; P4CCR5 cells, GFP vector titer",25.1
same,"IC50, inhibition of HIV vectors containing the HIV-1 envelope",[3]; vectors containing the envelope,25 µg/mL
same,"IC50, wild type HIV-1 infection, as printed in the picture of Figure 6 C, D",wild type HIV-1,87.8
CC1(C)S[C@@H]2[C@H](NC(=O)[C@H](N)c3ccccc3)C(=O)N2[C@H]1C(=O)O [Ampicillin],M E C (minimal effectory concentration),S. aureus,"10,50 ± 0,2 μg/ ml"
same,M E C (minimal effectory concentration),E. faecalis,"28,85 ± 0,6 μg/ ml"
same,M E C (minimal effectory concentration),E. coli,"18,9 ± 0,9 μg/ ml"
